HELM strings list units from the 5' end as sugar, base in round brackets, then linkage (d deoxyribose, r ribose, m 2'-O-methyl, p phosphodiester). Strings are as the collection lists them; they lack the last nucleoside at the 3' end of the tested compound. [moe] = 2'-O-(2-methoxyethyl) (MOE); [sp] = phosphorothioate linkage; [m5C] = 5-methylcytosine
Target: SMN2
Experiment: mouse, dose not given
Settings: ASO

Row | Substance | 3 h FOB score
1 | RNA1{[moe]([m5C])[sp].[moe](A)p.[moe]([m5C])p.[moe](T)p.[moe](T)p.[moe](T)[sp].[moe]([m5C])[sp].[moe](A)[sp].[moe](T)[sp].[moe](A)[sp].[moe](A)[sp].[moe](T)[sp].[moe](G)p.[moe]([m5C])p.[moe](T)p.[moe](G)[sp].[moe](G)}$$$$ (last 3' nucleoside missing) | 0 score 0-7
2 | RNA1{[moe]([m5C])[sp].[moe](T)[sp].[moe](T)[sp].[moe](T)[sp].[moe]([m5C])[sp].[moe](A)[sp].[moe](T)[sp].[moe](A)[sp].[moe](A)[sp].[moe](T)[sp].[moe](G)[sp].[moe]([m5C])[sp].[moe](T)[sp].[moe](G)[sp].[moe](G)}$$$$ (last 3' nucleoside missing) | 2.88 score 0-7
3 | RNA1{[moe]([m5C])[sp].[moe](T)[sp].[moe](T)[sp].[moe](T)[sp].[moe]([m5C])[sp].[moe](A)[sp].[moe](T)[sp].[moe](A)[sp].[moe](A)[sp].[moe](T)p.[moe](G)p.[moe]([m5C])p.[moe](T)p.[moe](G)[sp].[moe](G)}$$$$ (last 3' nucleoside missing) | 0 score 0-7
4 | RNA1{[moe]([m5C])[sp].[moe](T)[sp].[moe](T)[sp].[moe](T)[sp].[moe]([m5C])[sp].[moe](A)[sp].[moe](T)[sp].[moe](A)[sp].[moe](A)p.[moe](T)p.[moe](G)p.[moe]([m5C])p.[moe](T)[sp].[moe](G)[sp].[moe](G)}$$$$ (last 3' nucleoside missing) | 0 score 0-7
5 | RNA1{[moe]([m5C])[sp].[moe](T)[sp].[moe](T)[sp].[moe](T)[sp].[moe]([m5C])[sp].[moe](A)[sp].[moe](T)p.[moe](A)p.[moe](A)p.[moe](T)[sp].[moe](G)[sp].[moe]([m5C])[sp].[moe](T)[sp].[moe](G)[sp].[moe](G)}$$$$ (last 3' nucleoside missing) | 2 score 0-7
6 | RNA1{[moe]([m5C])[sp].[moe](T)[sp].[moe](T)[sp].[moe](T)[sp].[moe]([m5C])[sp].[moe](A)[sp].[moe](T)p.[moe](A)p.[moe](A)p.[moe](T)p.[moe](G)[sp].[moe]([m5C])[sp].[moe](T)[sp].[moe](G)[sp].[moe](G)}$$$$ (last 3' nucleoside missing) | 0.75 score 0-7
7 | RNA1{[moe]([m5C])[sp].[moe](T)[sp].[moe](T)[sp].[moe](T)[sp].[moe]([m5C])[sp].[moe](A)p.[moe](T)p.[moe](A)p.[moe](A)p.[moe](T)p.[moe](G)[sp].[moe]([m5C])[sp].[moe](T)[sp].[moe](G)[sp].[moe](G)}$$$$ (last 3' nucleoside missing) | 1 score 0-7
8 | RNA1{[moe]([m5C])[sp].[moe](T)[sp].[moe](T)[sp].[moe](T)[sp].[moe]([m5C])[sp].[moe](A)p.[moe](T)p.[moe](A)p.[moe](A)p.[moe](T)p.[moe](G)p.[moe]([m5C])[sp].[moe](T)[sp].[moe](G)[sp].[moe](G)}$$$$ (last 3' nucleoside missing) | 0.75 score 0-7
9 | RNA1{[moe]([m5C])[sp].[moe](T)[sp].[moe](T)[sp].[moe](T)[sp].[moe]([m5C])p.[moe](A)p.[moe](T)p.[moe](A)p.[moe](A)[sp].[moe](T)[sp].[moe](G)[sp].[moe]([m5C])[sp].[moe](T)[sp].[moe](G)[sp].[moe](G)}$$$$ (last 3' nucleoside missing) | 1 score 0-7
10 | RNA1{[moe]([m5C])[sp].[moe](T)[sp].[moe](T)[sp].[moe](T)[sp].[moe]([m5C])p.[moe](A)p.[moe](T)p.[moe](A)p.[moe](A)p.[moe](T)p.[moe](G)p.[moe]([m5C])[sp].[moe](T)[sp].[moe](G)[sp].[moe](G)}$$$$ (last 3' nucleoside missing) | 0 score 0-7
11 | RNA1{[moe]([m5C])[sp].[moe](T)[sp].[moe](T)[sp].[moe](T)p.[moe]([m5C])[sp].[moe](A)[sp].[moe](T)[sp].[moe](A)p.[moe](A)[sp].[moe](T)[sp].[moe](G)[sp].[moe]([m5C])p.[moe](T)[sp].[moe](G)[sp].[moe](G)}$$$$ (last 3' nucleoside missing) | 0.75 score 0-7
12 | RNA1{[moe]([m5C])[sp].[moe](T)[sp].[moe](T)p.[moe](T)[sp].[moe]([m5C])[sp].[moe](A)[sp].[moe](T)[sp].[moe](A)[sp].[moe](A)[sp].[moe](T)[sp].[moe](G)[sp].[moe]([m5C])[sp].[moe](T)p.[moe](G)[sp].[moe](G)}$$$$ (last 3' nucleoside missing) | 0.5 score 0-7
13 | RNA1{[moe]([m5C])[sp].[moe](T)[sp].[moe](T)p.[moe](T)[sp].[moe]([m5C])[sp].[moe](A)p.[moe](T)[sp].[moe](A)[sp].[moe](A)p.[moe](T)[sp].[moe](G)[sp].[moe]([m5C])p.[moe](T)[sp].[moe](G)[sp].[moe](G)}$$$$ (last 3' nucleoside missing) | 0 score 0-7
14 | RNA1{[moe]([m5C])[sp].[moe](T)[sp].[moe](T)p.[moe](T)[sp].[moe]([m5C])[sp].[moe](A)p.[moe](T)[sp].[moe](A)[sp].[moe](A)p.[moe](T)[sp].[moe](G)p.[moe]([m5C])[sp].[moe](T)p.[moe](G)[sp].[moe](G)}$$$$ (last 3' nucleoside missing) | 0 score 0-7
15 | RNA1{[moe]([m5C])[sp].[moe](T)[sp].[moe](T)p.[moe](T)[sp].[moe]([m5C])p.[moe](A)[sp].[moe](T)p.[moe](A)[sp].[moe](A)p.[moe](T)[sp].[moe](G)p.[moe]([m5C])[sp].[moe](T)p.[moe](G)[sp].[moe](G)}$$$$ (last 3' nucleoside missing) | 0.25 score 0-7
16 | RNA1{[moe]([m5C])[sp].[moe](T)[sp].[moe](T)p.[moe](T)p.[moe]([m5C])p.[moe](A)p.[moe](T)[sp].[moe](A)[sp].[moe](A)[sp].[moe](T)[sp].[moe](G)[sp].[moe]([m5C])[sp].[moe](T)[sp].[moe](G)[sp].[moe](G)}$$$$ (last 3' nucleoside missing) | 0 score 0-7
17 | RNA1{[moe]([m5C])[sp].[moe](T)p.[moe](T)p.[moe](T)[sp].[moe]([m5C])[sp].[moe](A)[sp].[moe](T)[sp].[moe](A)[sp].[moe](A)[sp].[moe](T)[sp].[moe](G)[sp].[moe]([m5C])p.[moe](T)p.[moe](G)[sp].[moe](G)}$$$$ (last 3' nucleoside missing) | 0.25 score 0-7
18 | RNA1{[moe]([m5C])[sp].[moe](T)p.[moe](T)p.[moe](T)p.[moe]([m5C])[sp].[moe](A)[sp].[moe](T)[sp].[moe](A)[sp].[moe](A)[sp].[moe](T)[sp].[moe](G)[sp].[moe]([m5C])p.[moe](T)p.[moe](G)[sp].[moe](G)}$$$$ (last 3' nucleoside missing) | 0 score 0-7
19 | RNA1{[moe]([m5C])[sp].[moe](T)p.[moe](T)p.[moe](T)p.[moe]([m5C])[sp].[moe](A)[sp].[moe](T)[sp].[moe](A)[sp].[moe](A)[sp].[moe](T)[sp].[moe](G)p.[moe]([m5C])p.[moe](T)p.[moe](G)[sp].[moe](G)}$$$$ (last 3' nucleoside missing) | 0 score 0-7
20 | RNA1{[moe]([m5C])[sp].[moe](T)p.[moe](T)p.[moe](T)p.[moe]([m5C])p.[moe](A)[sp].[moe](T)[sp].[moe](A)[sp].[moe](A)[sp].[moe](T)[sp].[moe](G)p.[moe]([m5C])p.[moe](T)p.[moe](G)[sp].[moe](G)}$$$$ (last 3' nucleoside missing) | 0 score 0-7
21 | RNA1{[moe]([m5C])p.[moe](T)[sp].[moe]([m5C])[sp].[moe](A)[sp].[moe]([m5C])[sp].[moe](T)[sp].[moe](T)[sp].[moe](T)[sp].[moe]([m5C])[sp].[moe](A)[sp].[moe](T)[sp].[moe](A)[sp].[moe](A)[sp].[moe](T)[sp].[moe](G)[sp].[moe]([m5C])[sp].[moe](T)[sp].[moe](G)}$$$$ (last 3' nucleoside missing) | 3.5 score 0-7

— the OligoGym collection
